In ChEMBL document CHEMBL4321785, “Challenges and Opportunities for Therapeutics Targeting the Voltage-Gated Sodium Channel Isoform NaV1.7” (J Med Chem, 2019):

What was measured:
[1] = species: Homo sapiens; test: Selectivity ratio of Kd for binding affinity to human recombinant Nav1.4 by radioligand binding assay to Kd for binding affinity to human recombinant Nav1.7 by radioligand binding assay
[2] = Plasma concentration in mouse model of CFA-induced pain at 30 mg/kg, po during Hargreaves test; type: ADME, organism-based; conditions: in vivo
[3] = biological target: T1, Sodium channel protein type 1 subunit alpha (Homo sapiens, UniProt P35498); test: Binding affinity to human recombinant Nav1.1 by radioligand binding assay
[4] = species: Homo sapiens; test: Selectivity ratio of Kd for binding affinity to human recombinant Nav1.6 by radioligand binding assay to Kd for binding affinity to human recombinant Nav1.7 by radioligand binding assay
[5] = biological target: T2, Sodium channel protein type 4 subunit alpha (Homo sapiens, UniProt P35499); test: Binding affinity to human recombinant Nav1.4 by radioligand binding assay
[6] = Ratio of unbound plasma concentration in mouse model of inherited erythromelalgia to Kd for binding affinity to recombinant human Nav1.7 by radioligand binding assay; type: ADME; conditions: in vivo
[7] = Ratio of plasma concentration in mouse model of pain at 30 mg/kg, po during hot plate test to IC50 for inhibition of mouse Nav1.7 expressed in HEK293 cells by electrophysiology assay; type: organism-based; conditions: in vivo
[8] = species: Homo sapiens; test: Selectivity ratio of Kd for binding affinity to human recombinant Nav1.1 by radioligand binding assay to Kd for binding affinity to human recombinant Nav1.7 by radioligand binding assay
[9] = Unbound fraction in mouse plasma; type: ADME, cell-free
[10] = biological target: Sodium channel protein type 3 subunit alpha (Homo sapiens, UniProt Q9NY46); test: Binding affinity to human recombinant Nav1.3 by radioligand binding assay
[11] = biological target: T3, Sodium channel protein type 2 subunit alpha (Homo sapiens, UniProt Q99250); test: Binding affinity to human recombinant Nav1.2 by radioligand binding assay
[12] = biological target: T4, Sodium channel protein type 8 subunit alpha (Homo sapiens, UniProt Q9UQD0); test: Binding affinity to human recombinant Nav1.6 by radioligand binding assay
[13] = Plasma concentration in mouse model of pain at 30 mg/kg, po during tail immersion test; type: ADME, organism-based; conditions: in vivo
[14] = species: Homo sapiens; test: Selectivity ratio of Kd for binding affinity to human recombinant Nav1.3 by radioligand binding assay to Kd for binding affinity to human recombinant Nav1.7 by radioligand binding assay
[15] = Plasma concentration in mouse model of pain at 30 mg/kg, po during hot plate test; type: ADME, organism-based; conditions: in vivo
[16] = Ratio of plasma concentration in mouse model of CFA-induced pain at 30 mg/kg, po during Hargreaves test to IC50 for inhibition of mouse Nav1.7 expressed in HEK293 cells by electrophysiology assay; type: organism-based; conditions: in vivo
[17] = species: Homo sapiens; test: Selectivity ratio of Kd for binding affinity to human recombinant Nav1.5 by radioligand binding assay to Kd for binding affinity to human recombinant Nav1.7 by radioligand binding assay
[18] = Ratio of unbound plasma concentration in mouse model of STZ-induced pain measured to Kd for binding affinity to mouse Nav1.7 by radioligand binding assay; type: ADME; conditions: in vivo
[19] = Ratio of unbound plasma concentration in mouse model of CFA-induced cold allodynia to Kd for binding affinity to mouse Nav1.7 by radioligand binding assay; type: ADME; conditions: in vivo
[20] = biological target: T5, Sodium channel protein type 5 subunit alpha (Homo sapiens, UniProt Q14524); test: Binding affinity to human recombinant Nav1.5 by radioligand binding assay
[21] = Ratio of unbound plasma concentration in mouse model of formalin-induced pain to Kd for binding affinity to mouse Nav1.7 by radioligand binding assay; type: ADME; conditions: in vivo
[22] = biological target: Sodium channel protein type 9 subunit alpha (Mus musculus, UniProt Q62205); test: Binding affinity to mouse Nav1.7 by radioligand binding assay
[23] = Ratio of plasma concentration in mouse model of pain at 30 mg/kg, po during tail immersion test to IC50 for inhibition of mouse Nav1.7 expressed in HEK293 cells by electrophysiology assay; type: organism-based; conditions: in vivo
[24] = biological target: Sodium channel protein type 10 subunit alpha (Mus musculus, UniProt Q6QIY3); test: Binding affinity to mouse Nav1.8 […] by radioligand binding assay
[25] = species: Homo sapiens; test: Selectivity ratio of Kd for binding affinity to human recombinant Nav1.2 by radioligand binding assay to Kd for binding affinity to human recombinant Nav1.7 by radioligand binding assay
[26] = biological target: T2, Sodium channel protein type 4 subunit alpha; test: Inhibition of human Nav1.4 expressed in HEK293 cells by electrophysiology assay; type: cell-based
[27] = biological target: T3, Sodium channel protein type 2 subunit alpha; test: Inhibition of human Nav1.2 expressed in HEK293 cells by electrophysiology assay; type: cell-based
[28] = system: Rattus norvegicus; test: Analgesic activity in it dosed rat model of pain by hot plate test; type: functional
[29] = biological target: Sodium channel protein type 9 subunit alpha (Homo sapiens, UniProt Q15858); test: Inhibition of human Nav1.7 expressed in HEK293 cells by electrophysiology assay; type: cell-based
[30] = species: Homo sapiens; test: Selectivity index, ratio of IC50 for inhibition of human Nav1.6 expressed in HEK293 cells by electrophysiology assay to IC50 for inhibition of human Nav1.7 expressed in HEK293 cells by electrophysiology assay; type: cell-based
[31] = system: Rattus norvegicus; test: Analgesic activity in it dosed rat model of formalin-induced pain; type: functional
[32] = biological target: T1, Sodium channel protein type 1 subunit alpha; test: Inhibition of human Nav1.1 expressed in HEK293 cells by electrophysiology assay; type: cell-based
[33] = biological target: T4, Sodium channel protein type 8 subunit alpha; test: Inhibition of human Nav1.6 expressed in HEK293 cells by electrophysiology assay; type: cell-based
[34] = species: Homo sapiens; test: Selectivity index, ratio of IC50 for inhibition of human Nav1.5 expressed in HEK293 cells by electrophysiology assay to IC50 for inhibition of human Nav1.7 expressed in HEK293 cells by electrophysiology assay; type: cell-based
[35] = species: Homo sapiens; test: Selectivity index, ratio of IC50 for inhibition of human Nav1.2 expressed in HEK293 cells by electrophysiology assay to IC50 for inhibition of human Nav1.7 expressed in HEK293 cells by electrophysiology assay; type: cell-based
[36] = system: Rattus norvegicus; test: Analgesic activity in po dosed rat model of pain by Hargreaves test; type: functional
[37] = system: Rattus norvegicus; test: Analgesic activity in it dosed rat model of pain by tail flick test; type: functional
[38] = species: Homo sapiens; test: Selectivity index, ratio of IC50 for inhibition of human Nav1.1 expressed in HEK293 cells by electrophysiology assay to IC50 for inhibition of human Nav1.7 expressed in HEK293 cells by electrophysiology assay; type: cell-based
[39] = species: Homo sapiens; test: Selectivity index, ratio of IC50 for inhibition of human Nav1.4 expressed in HEK293 cells by electrophysiology assay to IC50 for inhibition of human Nav1.7 expressed in HEK293 cells by electrophysiology assay; type: cell-based
[40] = biological target: T5, Sodium channel protein type 5 subunit alpha; test: Inhibition of human Nav1.5 expressed in HEK293 cells by electrophysiology assay; type: cell-based

T4 sequence (Q9UQD0 whole entry): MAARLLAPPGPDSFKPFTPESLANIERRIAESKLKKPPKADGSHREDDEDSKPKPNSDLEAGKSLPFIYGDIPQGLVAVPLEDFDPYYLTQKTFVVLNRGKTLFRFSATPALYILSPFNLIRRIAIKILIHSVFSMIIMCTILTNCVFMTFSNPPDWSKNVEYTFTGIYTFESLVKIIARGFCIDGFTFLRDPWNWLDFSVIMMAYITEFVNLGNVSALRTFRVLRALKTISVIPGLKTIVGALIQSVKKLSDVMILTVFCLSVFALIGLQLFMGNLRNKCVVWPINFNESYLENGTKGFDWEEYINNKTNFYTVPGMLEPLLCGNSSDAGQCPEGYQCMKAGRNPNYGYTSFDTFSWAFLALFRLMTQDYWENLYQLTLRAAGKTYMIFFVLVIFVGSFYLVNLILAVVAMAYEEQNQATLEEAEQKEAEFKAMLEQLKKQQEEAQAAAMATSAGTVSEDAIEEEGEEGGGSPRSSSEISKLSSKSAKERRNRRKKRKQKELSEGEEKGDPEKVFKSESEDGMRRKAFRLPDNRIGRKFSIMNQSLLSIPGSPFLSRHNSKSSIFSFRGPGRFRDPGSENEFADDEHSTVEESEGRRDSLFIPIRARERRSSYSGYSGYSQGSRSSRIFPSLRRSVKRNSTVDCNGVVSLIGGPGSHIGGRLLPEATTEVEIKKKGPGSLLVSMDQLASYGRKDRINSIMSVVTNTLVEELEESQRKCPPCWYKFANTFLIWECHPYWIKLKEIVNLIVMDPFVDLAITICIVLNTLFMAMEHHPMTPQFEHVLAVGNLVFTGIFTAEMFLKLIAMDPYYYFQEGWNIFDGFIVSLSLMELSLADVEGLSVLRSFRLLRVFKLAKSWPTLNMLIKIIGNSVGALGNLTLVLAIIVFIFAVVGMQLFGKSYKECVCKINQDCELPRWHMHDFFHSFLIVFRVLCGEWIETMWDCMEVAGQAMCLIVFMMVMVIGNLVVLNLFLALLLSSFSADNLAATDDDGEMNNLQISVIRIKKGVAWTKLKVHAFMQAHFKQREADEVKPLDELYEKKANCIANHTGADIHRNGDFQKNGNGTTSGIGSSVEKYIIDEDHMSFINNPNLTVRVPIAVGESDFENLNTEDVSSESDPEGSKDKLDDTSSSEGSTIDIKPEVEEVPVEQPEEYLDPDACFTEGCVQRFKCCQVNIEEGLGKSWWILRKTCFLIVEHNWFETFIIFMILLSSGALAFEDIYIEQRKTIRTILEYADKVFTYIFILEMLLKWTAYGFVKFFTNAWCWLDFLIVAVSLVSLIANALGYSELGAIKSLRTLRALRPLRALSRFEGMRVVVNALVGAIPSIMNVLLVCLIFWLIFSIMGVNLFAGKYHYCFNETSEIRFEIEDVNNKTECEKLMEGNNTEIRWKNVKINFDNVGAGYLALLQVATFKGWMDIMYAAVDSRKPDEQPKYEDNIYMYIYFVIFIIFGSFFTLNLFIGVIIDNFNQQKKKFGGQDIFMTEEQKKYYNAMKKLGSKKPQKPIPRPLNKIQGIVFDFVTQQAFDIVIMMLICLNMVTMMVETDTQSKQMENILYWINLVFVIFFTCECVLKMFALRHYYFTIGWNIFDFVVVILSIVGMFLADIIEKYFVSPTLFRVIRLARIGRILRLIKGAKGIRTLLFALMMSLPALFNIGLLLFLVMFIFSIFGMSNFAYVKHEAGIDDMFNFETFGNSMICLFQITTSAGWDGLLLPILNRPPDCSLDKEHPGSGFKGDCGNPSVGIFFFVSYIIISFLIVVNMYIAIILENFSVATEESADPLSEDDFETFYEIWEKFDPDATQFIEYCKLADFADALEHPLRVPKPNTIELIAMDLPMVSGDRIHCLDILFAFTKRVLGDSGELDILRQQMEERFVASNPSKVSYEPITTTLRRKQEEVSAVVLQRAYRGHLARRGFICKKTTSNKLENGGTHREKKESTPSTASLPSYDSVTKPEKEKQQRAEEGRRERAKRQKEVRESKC
T2 sequence (P35499 whole entry): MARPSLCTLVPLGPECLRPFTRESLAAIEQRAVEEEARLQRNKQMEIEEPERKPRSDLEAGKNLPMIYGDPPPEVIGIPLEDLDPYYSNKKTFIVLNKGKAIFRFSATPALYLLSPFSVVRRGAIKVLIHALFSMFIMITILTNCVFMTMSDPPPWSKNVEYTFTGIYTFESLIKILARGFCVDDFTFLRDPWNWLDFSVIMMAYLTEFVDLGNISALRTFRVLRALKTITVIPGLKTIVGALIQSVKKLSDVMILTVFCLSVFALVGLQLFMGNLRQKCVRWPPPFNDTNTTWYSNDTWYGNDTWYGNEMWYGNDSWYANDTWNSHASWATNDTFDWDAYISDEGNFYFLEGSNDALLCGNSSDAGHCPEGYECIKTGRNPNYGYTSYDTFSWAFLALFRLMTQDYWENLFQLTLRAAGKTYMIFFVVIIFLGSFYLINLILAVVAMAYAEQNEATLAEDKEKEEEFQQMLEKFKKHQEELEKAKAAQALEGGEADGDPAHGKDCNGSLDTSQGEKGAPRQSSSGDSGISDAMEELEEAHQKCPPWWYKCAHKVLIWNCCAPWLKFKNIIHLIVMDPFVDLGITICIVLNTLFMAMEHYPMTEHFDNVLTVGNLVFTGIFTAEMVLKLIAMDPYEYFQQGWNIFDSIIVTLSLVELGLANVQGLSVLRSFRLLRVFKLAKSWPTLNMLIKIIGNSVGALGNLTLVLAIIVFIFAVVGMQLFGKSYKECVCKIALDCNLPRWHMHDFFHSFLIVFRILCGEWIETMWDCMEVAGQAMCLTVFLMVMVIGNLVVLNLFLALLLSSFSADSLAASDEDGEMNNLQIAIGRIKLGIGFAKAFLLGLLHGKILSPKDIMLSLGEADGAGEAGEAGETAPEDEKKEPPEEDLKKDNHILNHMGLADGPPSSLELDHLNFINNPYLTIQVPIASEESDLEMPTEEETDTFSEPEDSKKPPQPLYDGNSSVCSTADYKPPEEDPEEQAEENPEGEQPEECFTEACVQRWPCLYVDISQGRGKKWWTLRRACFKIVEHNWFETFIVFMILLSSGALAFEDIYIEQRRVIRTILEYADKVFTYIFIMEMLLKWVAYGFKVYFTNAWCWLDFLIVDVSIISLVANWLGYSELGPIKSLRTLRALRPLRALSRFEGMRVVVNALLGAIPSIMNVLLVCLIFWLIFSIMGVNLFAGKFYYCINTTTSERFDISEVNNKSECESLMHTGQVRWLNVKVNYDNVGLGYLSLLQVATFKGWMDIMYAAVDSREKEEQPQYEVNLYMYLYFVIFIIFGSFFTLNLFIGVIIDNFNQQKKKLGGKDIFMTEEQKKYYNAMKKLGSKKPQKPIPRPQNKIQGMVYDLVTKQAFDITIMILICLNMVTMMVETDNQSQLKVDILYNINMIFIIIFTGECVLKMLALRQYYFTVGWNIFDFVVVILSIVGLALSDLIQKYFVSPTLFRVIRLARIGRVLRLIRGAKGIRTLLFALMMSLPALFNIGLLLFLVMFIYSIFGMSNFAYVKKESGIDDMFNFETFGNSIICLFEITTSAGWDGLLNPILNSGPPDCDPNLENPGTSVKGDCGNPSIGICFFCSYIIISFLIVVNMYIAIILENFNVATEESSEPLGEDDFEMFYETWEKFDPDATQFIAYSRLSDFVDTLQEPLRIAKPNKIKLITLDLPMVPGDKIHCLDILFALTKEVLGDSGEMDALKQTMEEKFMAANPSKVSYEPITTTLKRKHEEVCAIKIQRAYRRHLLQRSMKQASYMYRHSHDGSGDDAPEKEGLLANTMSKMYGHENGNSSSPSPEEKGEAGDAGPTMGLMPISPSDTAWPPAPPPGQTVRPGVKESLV

CS(=O)(=O)NC(=O)c1cc(C2CC2)c(OCC2CCN(Cc3cc(C(F)(F)F)ccc3Cl)CC2)cc1F
Ratio Ki [1]: 8 | concentration [2]: 16.1 µM | Kd [3]: 140 nM | Ratio Ki [4]: 60 | Kd [5]: 28 nM | Ratio [6]: 0.6 | Ratio [7]: 10 | Ratio Ki [8]: 40 | fraction unbound [9]: 0.002 | Kd [10]: 180 nM | Kd [11]: 64 nM | Kd [12]: 210 nM | concentration [13]: 10.5 µM | Ratio Ki [14]: 51 | concentration [15]: 10.5 µM | Ratio [16]: 15 | Ratio Ki [17]: 100 | Ratio [18]: 12 | Ratio [19]: 7.5 | Kd [20]: 370 nM | Ratio [21]: 5.5 | Kd [22]: 2.1 nM | Ratio [23]: 10 | Kd [24]: 13000 nM | Ratio Ki [25]: 18

CSCC[C@@H]1NC(=O)CNC(=O)[C@H](CCC(=O)O)NC(=O)[C@@H]2CSSC[C@H](NC(=O)[C@H](Cc3ccc(O)cc3)NC(=O)[C@H](Cc3ccc(O)cc3)NC(=O)[C@@H]3CCCN3C(=O)CN)C(=O)N[C@@H](CCC(N)=O)C(=O)N[C@@H](CCCCN)C(=O)N[C@@H](Cc3c[nH]c4ccccc34)C(=O)N[C@@H](CCSC)C(=O)N[C@@H](CCC(N)=O)C(=O)N[C@@H]([C@@H](C)O)C(=O)N[C@H]3CSSC[C@H](NC(=O)[C@H](C(C)C)NC1=O)C(=O)N[C@@H](CCCNC(=N)N)C(=O)N[C@@H](CC(C)C)C(=O)N[C@@H](Cc1c[nH]c4ccccc14)C(=O)N[C@H](C(=O)N[C@@H](CCCCN)C(=O)N[C@@H](CCCCN)C(=O)N[C@@H](CCCCN)C(=O)N[C@@H](CC(C)C)C(=O)N[C@@H](CC(C)C)C(=O)O)CSSC[C@H](NC(=O)[C@H](CCCCN)NC(=O)[C@H](CCCNC(=N)N)NC(=O)[C@H](CCC(=O)O)NC(=O)[C@H](CO)NC(=O)[C@H](CC(=O)O)NC3=O)C(=O)N2
IC50 [26]: 5300 nM | IC50 [27]: 1600 nM | ED [28]: 0.3 to 7.5 µg | IC50 [29]: 10 nM | Ratio IC50 [30]: 100 | ED [31]: 1 to 5 µg | IC50 [32]: 10000 nM | IC50 [33]: 1000 nM | Ratio IC50 [34]: > 1000 | Ratio IC50 [35]: 160 | ED [36]: 1.4 mg | ED [37]: 0.3 to 7.5 µg | Ratio IC50 [38]: 1000 | Ratio IC50 [39]: 530 | IC50 [40]: > 10000 nM
